Reference: ChEMBL document CHEMBL1201862, “PubChem BioAssay data set” (2004)
Structures can show the parent of a compound that is named as a salt. Calls of active or inactive are those of the source. For most assays here, no stated cut-off is given here; in the data, actives have a measured IC50 and inactives only a lower limit.

How the values were obtained:
Format in all cases: functional
[1] = molecular target: T1, Sentrin-specific protease 6 (Homo sapiens, UniProt Q9GZR1);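 further: Luminescence-based dose-response confirmatory assay of SENP6 inhibition, following up an ultra-high-throughput screen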
T1 sequence (Q9GZR1 whole entry): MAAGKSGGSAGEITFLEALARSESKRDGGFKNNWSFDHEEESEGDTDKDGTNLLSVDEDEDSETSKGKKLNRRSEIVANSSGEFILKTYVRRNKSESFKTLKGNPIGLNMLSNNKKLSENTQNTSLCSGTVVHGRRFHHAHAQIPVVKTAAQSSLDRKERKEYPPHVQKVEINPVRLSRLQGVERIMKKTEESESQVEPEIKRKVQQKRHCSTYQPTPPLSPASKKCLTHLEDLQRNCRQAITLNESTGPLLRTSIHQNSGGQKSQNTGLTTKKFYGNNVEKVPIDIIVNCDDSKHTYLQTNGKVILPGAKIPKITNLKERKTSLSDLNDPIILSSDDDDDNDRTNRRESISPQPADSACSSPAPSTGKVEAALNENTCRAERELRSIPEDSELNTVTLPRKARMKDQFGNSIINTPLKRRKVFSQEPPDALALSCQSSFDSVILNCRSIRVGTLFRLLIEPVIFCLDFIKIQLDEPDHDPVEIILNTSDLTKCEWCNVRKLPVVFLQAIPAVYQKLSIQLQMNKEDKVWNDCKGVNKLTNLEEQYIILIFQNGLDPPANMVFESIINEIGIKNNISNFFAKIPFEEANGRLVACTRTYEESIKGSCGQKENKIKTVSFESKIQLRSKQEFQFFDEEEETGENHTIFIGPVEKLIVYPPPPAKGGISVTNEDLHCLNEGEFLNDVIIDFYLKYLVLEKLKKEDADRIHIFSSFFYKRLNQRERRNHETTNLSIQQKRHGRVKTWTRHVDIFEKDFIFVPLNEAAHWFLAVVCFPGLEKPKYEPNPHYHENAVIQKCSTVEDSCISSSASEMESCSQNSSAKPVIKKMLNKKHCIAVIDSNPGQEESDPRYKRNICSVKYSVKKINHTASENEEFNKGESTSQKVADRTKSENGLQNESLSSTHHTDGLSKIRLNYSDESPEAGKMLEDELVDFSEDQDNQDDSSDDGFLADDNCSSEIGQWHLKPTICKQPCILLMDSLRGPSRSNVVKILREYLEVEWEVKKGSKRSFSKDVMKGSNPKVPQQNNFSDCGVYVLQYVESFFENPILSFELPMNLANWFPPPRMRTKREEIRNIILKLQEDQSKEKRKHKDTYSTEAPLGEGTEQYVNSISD

[2] = molecular target: T2, Sentrin-specific protease 7 (Homo sapiens, UniProt Q9BQF6);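 further: Luminescence-based dose-response confirmation of ultra-high-throughput screening hits, measuring inhibition of SENP7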
T2 sequence (Q9BQF6 whole entry): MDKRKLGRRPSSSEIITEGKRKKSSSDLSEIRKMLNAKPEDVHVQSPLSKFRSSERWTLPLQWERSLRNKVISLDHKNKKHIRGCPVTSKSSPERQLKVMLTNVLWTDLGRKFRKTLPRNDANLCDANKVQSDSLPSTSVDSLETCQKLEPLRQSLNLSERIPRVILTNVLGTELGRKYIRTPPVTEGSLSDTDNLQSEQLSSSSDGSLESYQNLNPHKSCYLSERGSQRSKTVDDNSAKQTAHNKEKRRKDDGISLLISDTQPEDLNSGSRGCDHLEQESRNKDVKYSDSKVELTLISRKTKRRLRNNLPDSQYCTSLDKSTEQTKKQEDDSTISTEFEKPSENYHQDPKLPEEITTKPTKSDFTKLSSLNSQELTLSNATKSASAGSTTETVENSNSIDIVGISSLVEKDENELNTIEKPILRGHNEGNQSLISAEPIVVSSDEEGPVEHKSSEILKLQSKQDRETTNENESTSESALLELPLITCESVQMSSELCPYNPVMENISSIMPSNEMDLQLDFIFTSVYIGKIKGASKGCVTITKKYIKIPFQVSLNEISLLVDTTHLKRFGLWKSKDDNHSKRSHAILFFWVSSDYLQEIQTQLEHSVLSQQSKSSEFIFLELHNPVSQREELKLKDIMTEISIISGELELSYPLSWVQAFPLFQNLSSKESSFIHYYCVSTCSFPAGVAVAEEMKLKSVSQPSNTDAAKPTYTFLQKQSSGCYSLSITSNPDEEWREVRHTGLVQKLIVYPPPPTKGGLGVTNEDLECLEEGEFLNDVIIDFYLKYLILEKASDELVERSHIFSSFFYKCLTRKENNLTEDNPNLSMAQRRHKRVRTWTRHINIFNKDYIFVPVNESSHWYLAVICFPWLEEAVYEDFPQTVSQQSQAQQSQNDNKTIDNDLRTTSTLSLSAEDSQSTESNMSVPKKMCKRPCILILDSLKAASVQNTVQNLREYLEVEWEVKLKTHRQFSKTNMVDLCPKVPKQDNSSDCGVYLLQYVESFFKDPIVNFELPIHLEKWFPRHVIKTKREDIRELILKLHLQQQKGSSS

[3] = molecular target: T3, Short transient receptor potential channel 4 (Mus musculus, UniProt Q9QUQ5); assay: mouse TRPC4 channel activators, dose response, cell-based, HEK293 TRPC4/mu-opioid, Fluo-4 calcium (AID 434937)
T3 sequence (Q9QUQ5 whole entry): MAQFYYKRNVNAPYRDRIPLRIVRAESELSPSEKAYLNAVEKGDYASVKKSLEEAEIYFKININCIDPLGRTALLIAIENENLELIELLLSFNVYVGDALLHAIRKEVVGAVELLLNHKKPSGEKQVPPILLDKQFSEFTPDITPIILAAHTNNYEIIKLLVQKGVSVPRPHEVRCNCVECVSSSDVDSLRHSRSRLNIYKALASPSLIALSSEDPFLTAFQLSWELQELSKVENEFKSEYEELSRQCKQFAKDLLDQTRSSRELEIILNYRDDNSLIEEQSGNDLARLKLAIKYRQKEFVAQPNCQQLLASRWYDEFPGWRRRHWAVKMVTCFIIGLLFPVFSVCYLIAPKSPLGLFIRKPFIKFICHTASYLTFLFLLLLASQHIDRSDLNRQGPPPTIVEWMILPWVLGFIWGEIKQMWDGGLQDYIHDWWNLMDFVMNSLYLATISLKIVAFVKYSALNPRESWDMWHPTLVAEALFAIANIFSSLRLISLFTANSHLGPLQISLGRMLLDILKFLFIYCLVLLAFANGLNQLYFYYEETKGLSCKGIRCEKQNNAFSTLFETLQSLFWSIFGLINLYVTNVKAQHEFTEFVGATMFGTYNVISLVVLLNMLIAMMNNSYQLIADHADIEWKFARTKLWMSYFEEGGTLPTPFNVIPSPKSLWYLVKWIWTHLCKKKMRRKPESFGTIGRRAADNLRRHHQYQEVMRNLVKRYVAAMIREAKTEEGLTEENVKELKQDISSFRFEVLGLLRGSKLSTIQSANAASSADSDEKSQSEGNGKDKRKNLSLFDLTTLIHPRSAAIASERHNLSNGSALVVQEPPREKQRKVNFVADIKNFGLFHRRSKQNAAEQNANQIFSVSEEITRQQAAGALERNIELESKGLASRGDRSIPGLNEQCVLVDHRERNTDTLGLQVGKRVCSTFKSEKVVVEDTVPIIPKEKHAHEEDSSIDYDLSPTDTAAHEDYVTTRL

Structure (SMILES): CCC(C)n1c(NC(=O)c2ccccc2)c(C#N)c2nc3ccccc3nc21 (stereo unspecified)
- IC50 [1]: 0.984 µM (active)
- IC50 [2]: 2.82 µM (active)

Structure (SMILES): CCN1/C(=C\c2ccc3ccccc3[n+]2CC)Sc2cc(C)ccc21
- EC50 [3]: 4.73 µM (active)

Structure (SMILES): O=C(CCl)Oc1ccc2occ(C(=O)c3cccs3)c2c1
- IC50 [1]: 30.7 µM (active)
- IC50 [2]: 10.7 µM (active)

Structure (SMILES): CC[C@@H](CO)NC(=O)[C@@H]1C=C2c3cccc4c3c(cn4C)C[C@H]2N(C)C1 [METHYSERGIDE MALEATE]
- EC50 [3]: 1.5 µM (active)
